Source: patent US8367731B2, “Peritoneal dialysis fluid” (Fresenius Medical Care Deutschland GmbH, priority 2005, dated 2013)
Counter-ions that a name gives are not always drawn.

Legend:
[1] = in vivo ultrafiltration volume, intraperitoneal volume by Texas Red labelled albumin dilution; details: 10 mM citrate in PD fluid; 2 hours after infusion; FIG. 2
Method: The lower limit of the citrate concentration is evident from FIG. 1, where a reasonable inhibited complement cascade is provided with a citrate concentration of at least 4 mM. The ultrafiltration volume was determined with the aid of a fluorescence labelled albumin. This was used as volume marker according to a recently developed technique, in which Texas Red® labelled bovine serum albumin (TR-BSA) has been used as a tracer for determinations of plasma volume. The fluorescence characteristics of TR-BSA (Molecular Probes, Eugene, Oreg., USA) solved in fresh and used PD fluid were evaluated, showing a linear relationship between fluorescence (excitation at 570 nm and emission at 615 nm) and concentration in the range of 0-20 μg/ml. By adding 1 mg/ml of unlabeled bovine serum albumin, a small difference in baseline fluorescence between the fresh and the used PD fluid was eliminated. […] In the present tests, 100 μg Texas Red® labelled bovine serum albumin and 1 mg unlabeled BSA was added to 20 ml PD fluid and intraperitoneal volumes were determined from the dilution calculated from fluorescence values of cell-free samples. The intraperitoneal volumes obtained from measurements of Texas Red® albumin after PD fluid exposure increased when citrate was added to the PD fluid, see FIG. 2. The citrate concentration used in the test of FIG. 2 was 10 mM.

[2] = test system: complement activation (C3a-desarg); test: in vitro complement activation, C3a-desarg measured by ELISA after Zymosan addition; format: biochemical, rat
Method: The complement activation was determined from the concentration of C3a-desarg measured by ELISA (rat C3adesARG ELISA #CL89160K; Cedarlane Laboratories Ltd., Hornby, Ontario, Canada). The C3a-desarg levels were expressed as concentrations. Venous blood was used and introduced in a lepirudin treated 5 cc syringe (50 μl lepirudin (5 mg/ml)+70 μl PBS in the syringe and needle). 0.4 ml was transferred to a 3 cc tube with 1.5 ml PD fluid with citrate additions of 0, 2, 4, 6, 8, and 10 mM, respectively, (i.e. 0, 12, 24, 36, 48, 60 μl of a citrate solution with the citrate concentration of 250 mM). Thereafter the samples were spun to remove the blood cells. 1 ml of the supernatant was transferred to a new tube, 20 μl Zymosan (20 mg/ml) was added and the tube. Thereafter EDTA was added to a final concentration of 15 mM, the Zymosan was spun down, and samples of the supernatant were used for the ELISA measurement referred to above. […] However, the upper limit of citrate, which could be present in a PD fluid, is limited by the total amount of buffer solution within the PD fluid. The amount of added citrate influence the total amount of buffer in the PD fluid since citrate also give rise to a buffer effect. Thus, the buffer used in the PD fluid has to be decreased equal to the equivalent amount of added citrate. […]

## O=C(O)CC(O)(CC(=O)O)C(=O)O [citrate, tri-sodium citrate]
[1]
  intraperitoneal volumes (ultrafiltration) after PD fluid exposure: increased
[2]; read from FIG. 1, lower limit of citrate in PD fluid
  citrate concentration providing a reasonable inhibited complement cascade: at least 4 mM
[2]; venous blood in PD fluid with citrate additions of 0, 2, 4, 6, 8 and 10 mM, Zymosan, FIG. 1
  C3a-desarg concentration (complement activation): decreased with increasing citrate concentration
